Measured values published in patent US20190016689A1, “NOVEL FLUORINATED QUINAZOLINE DERIVATIVES AS EGFR INHIBITORS” (TRILLIUM THERAPEUTICS INC., priority 2016, published 2019).
Like-named read-outs stand apart in the source and are kept apart here.

Experiments:
CCRF-CEM = assay: NCI screening panel (SRB); type: cell-based; conditions: Homo sapiens, CCRF-CEM (Leukemia), 48 h; for CC50: read-out: LC50 (the source's name)
HCT-15 = assay: NCI screening panel (SRB); type: cell-based; conditions: Homo sapiens, HCT-15 (Colon), 48 h; for CC50: read-out: LC50 (the source's name)
CAKI-1 = assay: NCI screening panel (SRB); type: cell-based; conditions: Homo sapiens, CAKI-1 (Renal), 48 h; for CC50: read-out: LC50 (the source's name)
Microsomal stability = type: in vitro ADME; conditions: Human liver microsomes with NADPH; for Remaining Percentage (%) after 60 min: 1 μM
Protocol: Working stocks were initially diluted to a concentration of 40.0 μM in 0.1 M potassium phosphate buffer before addition to the reaction vials. Pooled mouse (CD-1, male) or human (50 donors) liver microsomes were utilized at a final concentration of 0.5 mg/ml. […] Reactions were carried out at 37° C. in a shaker, and the final concentration of DMSO was kept constant at 0.01%. The final volume for each reaction was 100 μL, which includes the addition of an NADPH-Regeneration solution (NRS) mix. This NRS mix is comprised of glucose 6-phosphate dehydrogenase (0.4 U/mL), NADP+(1.3 mM), MgCl2 (3.3 mM), and glucose 6-phosphate (3.3 mM) in assay mixtures. […] Samples were then centrifuged at 4,000 rpm for 10 minutes to remove debris and precipitated protein. Approximately 150 μL of supernatant was subsequently transferred to a new 96 well microplate for LC/MS analysis.
Narrow-window mass extraction LC/MS analysis was performed for all samples using a Waters Xevo quadrupole time-of-flight (QTof) mass spectrometer and an ACQUITY UPLC system, to determine relative peak areas of parent compound.

[1] = Plasma and brain exposure in male CD-1 mice (Brain PK); type: in vivo; conditions: CD-1, mouse, brain; for AUC(0-t): read-out: AUC0-tlast; for half-life: read-out: Apparent t1/2 (converted); for MRT last: read-out: MRT0-tlast
Protocol: Animals: Male CD-1 mice (20-25 g) from Charles River Labs will be acclimatized for a minimum of 5 days prior to dosing. Body weights will be recorded on the day of dosing. Food restriction: Animals dosed p.o. will be deprived of food overnight and fed ˜2 h following dosing. Clinical observations: Animals will be observed at the time of dosing and each sample collection. Any abnormalities will be documented. Dosing: Formulations will be administered i.v. via the tail vein and p.o. by gavage with disposable feeding needles. Sample collection: Terminal blood samples will be collected under O2/CO2 anesthesia by cardiac puncture and then the brain and lungs will be excised blotted and weighed. Sample processing/storage: All blood samples will be transferred into K2EDTA tubes and centrifuged (6,800 rpm for 5 min at 4° C.) to obtain plasma. All samples will be stored frozen at −80° C. until bioanalysis. Sample retention: Plasma, brain and lung samples will be analyzed and any remaining samples will be stored frozen at −80° C. until the study is completed.

OVCAR-3 = assay: NCI screening panel (SRB); conditions: Homo sapiens, OVCAR-3, 48 h; for CC50: read-out: LC50
[2] = Plasma protein binding (equilibrium dialysis); type: in vitro ADME; conditions: pH 7.4, dialysis 6 hours
Protocol: Prepare a basic solution by dissolving 14.2 g/L Na2HPO4 and 8.77 g/L NaCl in deionized water. Store at 4° C. for up to 7 days. Prepare an acidic solution by dissolving 15.6 g/L NaH2PO4.2H2O and 8.77 g/L NaCl in deionized water. Store at 4° C. for up to 7 days. Titrate the basic solution with the acidic solution to pH 7.4. Store at 4° C. for up to 7 days. Check pH on the day of experiment and adjust if outside specification of 7.4±0.1.
b—Preparation of Dialysis Membranes Soak the dialysis membranes in ultrapure water for 60 minutes to separate strips, then in 20% ethanol for 20 minutes, finally in dialysis buffer for 20 minutes. c—Preparation of Plasma
Thaw the frozen plasma immediately in a 37° C. water bath.
Centrifuge plasma at 3,220 g for 10 minutes at room temperature to remove clots and collect supernatant into a fresh tube. Check and record the pH of the plasma.
Note: a) Only use plasma that has been thawed no more than twice since arrival. b) Only use plasma within the range of pH 7 to pH 8.
The working solutions of test compound and control compound ketoconazole are prepared in 50% water/50% acetonitrile and DMSO at the concentration of 200 μM, respectively. And then remove 3 μL of working solution to mix with 597 μL of human, rat and mouse plasma to achieve final concentration of 1 μM (0.5% DMSO). Vortex thoroughly.
Assemble the dialysis set up following the manufacturer's instructions. Load cells with 120 μL of plasma sample and dialyzed against equal volume of dialysis buffer (PBS). The assay is performed in duplicate. Seal the dialysis plate and place the plate in an incubator at 37° C. with 5% CO2 at approximately 100 rpm for 6 hours. At the end of dialysis, remove seal and pipette 50 μL each of post-dialysis samples from both buffer and plasma chambers into separate tubes in plate.
Add 50 μL of blank plasma to the buffer samples, and an equal volume of PBS to the collected plasma samples. Add 300 μL of room temperature quench solution (acetonitrile containing internal standards (IS, 200 nM Labetalol, 100 nM Alprazolam and 2 μM Ketoprofen)) to precipitate protein. Vortex for 5 minutes. Samples in plate are centrifuged at 3,220 g for 30 minutes at room temperature. Transfer 100 μL of the supernatant to a new plate. The supernatant may be diluted with 100 μL or 200 μL water according to the LC/MS signal response and peak shape. Mix well and analyze samples using LC/MS/MS.

[3] = Log P determination (HPLC with reference substances); type: physicochemical; conditions: HPLC retention against reference substances of known log P
Protocol: Prepare thiourea in acetonitrile and ultrapure water mixture (1:1 in v:v) as unretained organic substance sample. Prepare acetanilide, methyl benzoate, benzophenone, benzyl benzoate, fluoranthene and DDT in acetonitrile and ultrapure water mixture (1:1 in v:v) as reference substances mixture.
Prepare the stock solutions of test compounds and control compound progesterone in acetonitrile at the concentration of 2 mM. Dilute one volume of the stock solution with one volume of ultrapure water. If not soluble, filtrate the sample using a 0.45 μm nylon membrane.
Prepare acidic or basic mobile phase according to the character of test compounds. Run a blank sample (ultrapure water mixture (1:1 in v:v)), followed by unretained organic substance sample and reference substances mixture. Then run the test compounds and control compound in singlet, and at the end of the batch rerun the reference substances mixture.

[4] = human, read-out: Human Plasma % Bound (converted)
[5] = mouse, read-out: Mouse Plasma % Bound (converted)
[6] = rat, read-out: Rat Plasma % Bound (converted)

| SMILES | GI50 (CCRF-CEM) | CC50 (CCRF-CEM) | GI50 (HCT-15) | CC50 (HCT-15) | GI50 (CAKI-1) | CC50 (CAKI-1) | half-life at 1 μM (Microsomal stability) | microsomal CLint at 1 μM (Microsomal stability) | Remaining Percentage (%) after 60 min (Microsomal stability) | Cmax ([1]; iv, i.v. 1 mg/kg free base) | Tmax ([1]; iv, i.v. 1 mg/kg free base) | AUC(0-t) ([1]; iv, i.v. 1 mg/kg free base) | half-life ([1]; iv, i.v. 1 mg/kg free base) | MRT last ([1]; iv, i.v. 1 mg/kg free base) | AUC(0-inf) ([1]; po, p.o. 25 mg/kg free base) | Cmax ([1]; po, p.o. 25 mg/kg free base) | Tmax ([1]; po, p.o. 25 mg/kg free base) | AUC(0-t) ([1]; po, p.o. 25 mg/kg free base) | half-life ([1]; po, p.o. 25 mg/kg free base) | MRT last ([1]; po, p.o. 25 mg/kg free base) | other results |
| --- | --- | --- | --- | --- | --- | --- | --- | --- | --- | --- | --- | --- | --- | --- | --- | --- | --- | --- | --- | --- | --- |
| O=C(/C=C/CN1CCCCC1)Nc1cc2c(Nc3ccc(F)c(Cl)c3F)ncnc2cc1OCCOC(F)F.O=C(O)/C=C\C(=O)O.O=C(O)/C=C\C(=O)O [Example I-10-MA, (E)-N-[4-(3-chloro-2,4-difluoro-anilino)-7-[2-(difluoromethoxy)ethoxy]quinazolin-6-yl]-4-(1-piperidyl)but-2-enamide di-maleic acid salt] | 2270 nM | > 100000 nM | 1340 nM | 23000 nM | 22.9 nM | 6530 nM | 1.45 h | 15.9 µL/min/mg | 60.64% | 1110 ng/mL | 0.25 h | 1710 ng·h/mL | 4.75 h | 2.99 h | 14000 ng·h/mL | 3830 ng/mL | 2 h | 13900 ng·h/mL | 3.25 h | 3.68 h | AUC(0-inf) ([1]; iv, i.v. 1 mg/kg free base): 1730 ng·h/mL; GI50 (OVCAR-3): 390 nM; CC50 (OVCAR-3): 16800 nM |
| CN(C)C/C=C/C(=O)Nc1cc2c(Nc3ccc(F)c(Cl)c3F)ncnc2cc1OCCOC(F)F.O=C(O)/C=C\C(=O)O.O=C(O)/C=C\C(=O)O [Example I-9-MA, (E)-N-[4-(3-chloro-2,4-difluoro-anilino)-7-[2-(difluoromethoxy)ethoxy]quinazolin-6-yl]-4-(dimethylamino)but-2-enamide di-maleic acid salt] | 2470 nM | > 100000 nM | 675 nM | 9460 nM | < 10 nM | 3760 nM | 0.986 h | 23.4 µL/min/mg | 47.73% | 171 ng/mL | 0.0833 h | 397 ng·h/mL | 7.11 h | 6.6 h | 5960 ng·h/mL | 651 ng/mL | 2 h | 5900 ng·h/mL | 3.44 h | 6.78 h | AUC(0-inf) ([1]; iv, i.v. 1 mg/kg free base): 420 ng·h/mL; GI50 (OVCAR-3): 81.1 nM; CC50 (OVCAR-3): 7440 nM |
| CN(C)C/C=C/C(=O)Nc1cc2c(Nc3cccc(Cl)c3F)ncnc2cc1OCCOC(F)F.O=C(O)/C=C\C(=O)O [Example I-5-MA, (E)-N-[4-(3-chloro-2-fluoro-anilino)-7-[2-(difluoromethoxy)ethoxy]quinazolin-6-yl]-4-(dimethylamino)but-2-enamide dimaleic acid salt] | – | – | – | – | – | – | – | – | – | – | – | – | – | – | – | – | – | – | – | – | fraction unbound at 6 h, 1 μM [2, 4]: 0.117; fraction unbound at 6 h, 1 μM [2, 5]: 0.0975; fraction unbound at 6 h, 1 μM [2, 6]: 0.0771; chromatographic logP [3]: 3.57 |
| CN(C)C/C=C/C(=O)Nc1cc2c(Nc3ccc(F)c(Cl)c3)ncnc2cc1O[C@H]1CCOC1 [Afatinib, reference compound] | – | – | – | – | – | – | – | – | – | 12.7 ng/mL | 0.0833 h | 44.5 ng·h/mL | 4.97 h | 7.01 h | 704 ng·h/mL | 83.3 ng/mL | 4 h | 688 ng·h/mL | 3.69 h | 8.64 h | fraction unbound at 6 h, 1 μM [2, 4]: 0.08; fraction unbound at 6 h, 1 μM [2, 5]: 0.0666; fraction unbound at 6 h, 1 μM [2, 6]: 0.0896; chromatographic logP [3]: 4.26 |
